The test system of assay [1] is feline CD3^+CD8^+ T cells. Description: CFSE-based feline CD3+CD8+ T-cell proliferation. Also noted: species or system cat. As to conditions: FIV-vaccinated cats; for CD8, frequency of responders: FIV epitope peptide; for CD8^+ T (T-cell proliferation), frequency of responders: FIV peptides. Put shortly:
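CFSE-labelled PBMCs (2.5×10^5) from cats stimulated 5 days at 37 °C with peptides or overlapping peptide pools at 4 μg/mL each. Proliferating CD3+CD4+ and CD3+CD8+ cells gated by flow. Media/control values subtracted; positive threshold ≥1 CFSE^low (≥0.5 CFSE^low in vaccine trial).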

Assay [2] deals with CD3^+CD4^+ T cells from HIV^+ subjects. The assay is described as follows: CFSE-based CD3+CD4+ T-cell proliferation, HIV+ human subjects. Particulars: for CD4, frequency of responders: FIV epitope peptide; for CDC4^+ T (T-cell proliferation), frequency of responders: FIV peptides. On the procedure: The overlapping peptide pools of FIV and HIV-1 structural and enzyme proteins were used to stimulate the […] (PBMC) and the T cells from HIV^+ subjects as previously described for epitope mapping of HIV-1 and FIV p24 and reverse transcriptase (RT) (Sanou et al., 2013; Roff et al., 2015). The individual peptides in those peptide pools with positive responses to either interferon-γ (IFNγ) production and/or T-cell proliferation were determined with IFNγ ELISpot analysis and CFSE-based CD3^+CD4^+ and CD3^+CD8^+ T-cell proliferation analyses followed by the FACS-based intracellular staining (ICS) for cytolysin (perforin) and cytotoxin (granzyme A [GrzA] and GrzB) (Sanou et al., 2013; Roff et al., 2015). Besides viral p24 and RT proteins, the identical approach was used to identify anti-HIV/FIV T-cell epitopes on viral matrix (MA), nucleocapsid (NC), protease (PR), RNAase, integrase (IN), surface envelope (SU Env), and transmembrane envelope (TM Env) (FIG. 12).
Since our goal is to develop HIV vaccine for human use, the HIV peptides (Table 10) counterpart of the cross-reactive FIV peptides shown in Table 9 were tested with PBMC and T cells from HIV^+ subjects. The immune functions analyzed were human IFNγ production by ELISpot, cytolysin/cytotoxin production by ICS, and CFSE-based proliferation of CD3^+CD4^+ and CD3^+CD8^+ T cells from HIV^+ subjects (Table 10, the first set of results). In addition, the Los Alamos National Laboratories (LANL) database was used to identify the HLA allele(s) of the HIV epitope sequence with CTL activity that can exist within the sequence of the conserved counterpart HIV peptide (Table 9, LANL CTL). The bold HLA class-I supertypes and the bold 2-digit alleles are those on the “Optimal CD8^+ CTL Epitopes” list and those without bold are alleles for potential CTL epitope. […] The HLA class II such as HLA-DRB1 has yet to be fully classified into supertypes, and therefore the 4-digit resolution nomenclatures for the HLA-DRB1 alleles are shown.
The threshold for positive IFNγ and IL2 ELISpot responses is ≥50 spot-forming units (SFU) per 10^6 PBMC. The threshold for CFSE-based CD4^+ and CD8^+ T-cell proliferation is ≥2% CD4^+ T-cell CFSE^low or CD8^+ T-cell CFSE^low. The threshold of FACS-based intracellular cytokine staining (ICS) is ≥0.2%. […] The nine FIV peptides in black were used in the current MAP vaccine trial, whereas the 13 peptides in blue were not used. […] The MAPs and their corresponding peptide(s) were also tested for their ability to enhance or suppress in vitro FIV infection of feline PBMC (E/S of peptides and E/S of MAP).
The counterpart HIV-1 peptides of the FIV peptides were also tested for immunogenicity using PBMC and T cells from HIV^+ human subjects. […] The HRT7-1 and HRT7-2 were also tested with cells from HIV^+ subjects on ART. The threshold for positive IFNγ ELISpot response is ≥75 spot-forming units (SFU) per 10^6 PBMC. The threshold for CFSE-based CD4^+ (CD4^+ T) and CD8^+ (CD8^+ T) T-cell proliferation is ≥2% CD4^+ T-cell CFSE^low or CD8^+ T-cell CFSE^low. The threshold of intracellular cytokine staining (ICS) of FACS-based cytolysin (perforin) and cytotoxins (granzymes A and B) in CD4^+ T cells (CyCD4) and CD8^+ T cells (CyCD8) is ≥0.2%. […] The nine HIV-1 peptides in black are the counterpart FIV peptides used in the current MAP vaccine trial, whereas the 13 peptides in blue were not.

As for AGLRQSLEQYQVVKQ [FSU4], in assay [1], the “CD8, frequency of responders” value is reported as “+++ (41%-54% (+++))” and the “CD8^+ T (T-cell proliferation), frequency of responders” value (from here on “CD8^+ T (T-cell proliferation)”) is recorded as “+++ (40.1%-54% (+++))”. For the same sequence, in assay [2], the “CD4, frequency of responders” value was “— (0%-1.4% (—))” and the “CDC4^+ T (T-cell proliferation), frequency of responders” value (shortened to “CDC4^+ T (T-cell proliferation)”) is reported as “— (0%-1.4%(—))”.

Consider KFLYTAFAMQELR [FTM4-3], for which, in assay [1], the “CD8, frequency of responders” value is listed as “++ (26%-40% (++))” and the “CD8^+ T (T-cell proliferation)” value is “++ (25.1%-40% (++))”. In assay [2], the “CD4, frequency of responders” value is listed as “— (0%-1.4% (—))” and the “CDC4^+ T (T-cell proliferation)” value is “— (0%-1.4%(—))”.

As for KKKSGKWRMLIDFRV [FRT3-3], in assay [1], the “CD8, frequency of responders” value is on record as “+++ (41%-54% (+++))” and the “CD8^+ T (T-cell proliferation)” value is “+++ (40.1%-54% (+++))”. Further, in assay [2], the “CD4, frequency of responders” value is listed as “— (0%-1.4% (—))” and the “CDC4^+ T (T-cell proliferation)” value is reported as “— (0%-1.4%(—))”.

Consider LLLILCLPTLVDCIRN [FTM8(20)], for which, in assay [1], the “CD8, frequency of responders” value is “++++ (>54% (++++))” and the “CD8^+ T (T-cell proliferation)” value is listed as “++++ (>54% (++++))”. For the same sequence, in assay [2], the “CD4, frequency of responders” value is reported as “++ (26%-40% (++))” and the “CDC4^+ T (T-cell proliferation)” value is given as “++ (25.1%-40% (++))”.

Regarding PTDMATLIMAAPGCA [Fp4-3], in assay [1], the “CD8, frequency of responders” value is recorded as “+ (12.5%-25% (+))” and the “CD8^+ T (T-cell proliferation)” value is given as “+ (12.5%-25% (+))”. Besides, in assay [2], the “CD4, frequency of responders” value was “— (0%-1.4% (—))” and the “CDC4^+ T (T-cell proliferation)” value is listed as “— (0%-1.4%(—))”.

Take WRMLIDFRVLNKL [FRT3-4]: in assay [1], the “CD8, frequency of responders” value is given as “+++ (41%-54% (+++))” and the “CD8^+ T (T-cell proliferation)” value is recorded as “+++ (40.1%-54% (+++))”. Further, in assay [2], the “CD4, frequency of responders” value is “— (0%-1.4% (—))” and the “CDC4^+ T (T-cell proliferation)” value was “— (0%-1.4%(—))”.

These data come from patent publication US10758609B2, “Cross-reactive T-cell epitopes of HIV, SIV, and FIV for vaccines in humans and cats” (priority 2015, dated 2020).
